In data set [1] the target is T1, human HRH4 (Homo sapiens, UniProt Q9H3N8).
T1 construct: purchased PerkinElmer
The data set is described as follows: Histamine H4 receptor binding test ([3H]-Histamine radioligand binding). Conditions: membrane fraction of CHO-K1 expressing human HRH4; [3H]-Histamine 15 nM; Ki by Cheng-Prusoff. The method, then:
Membrane fraction of CHO-K1 stably expressing human HRH4 was purchased from PerkinElmer. Radioligand binding assay was performed in 96 well polypropylene assay plates in a total assay volume of 150 μL. Membrane suspension (15 μg of protein) was mixed with [3H]-Histamine (PerkinElmer) at 15 nM and compounds at various concentration in 50 mM Tris-HCl pH7.4, 5 mM EDTA buffer. Assays were incubated for 60 min at room temperature, then the reactions were terminated by rapid filtration over 96-well GF/B filter plates (PerkinElmer) presoaked in 0.5% polyethyleneimine. Unbound radioactivity was eliminated by six times of wash with 350 μL of ice-cold 50 mM Tris pH7.4 buffer. When the filter plates were dried, Microscint-MS liquid scintillation fluid (PerkinElmer) was added to each well and retained radioactivity plates were counted in a Topcount liquid scintillation counter (PerkinElmer). Specific binding was calculated by subtracting non-specific binding determined in the presence of 100 μM unlabeled histamine from total count.
The resulting data were analyzed for IC50 using the non-linear regression on XLfit.
Affinity values (Ki) were then determined by Cheng-Prusoff equation.

In data set [2] the target is T2, hERG (IKr) (Homo sapiens, UniProt Q12809).
T2 construct: expressed in transfected cells; host or cells: HEK293
T2 sequence (Q12809 whole entry): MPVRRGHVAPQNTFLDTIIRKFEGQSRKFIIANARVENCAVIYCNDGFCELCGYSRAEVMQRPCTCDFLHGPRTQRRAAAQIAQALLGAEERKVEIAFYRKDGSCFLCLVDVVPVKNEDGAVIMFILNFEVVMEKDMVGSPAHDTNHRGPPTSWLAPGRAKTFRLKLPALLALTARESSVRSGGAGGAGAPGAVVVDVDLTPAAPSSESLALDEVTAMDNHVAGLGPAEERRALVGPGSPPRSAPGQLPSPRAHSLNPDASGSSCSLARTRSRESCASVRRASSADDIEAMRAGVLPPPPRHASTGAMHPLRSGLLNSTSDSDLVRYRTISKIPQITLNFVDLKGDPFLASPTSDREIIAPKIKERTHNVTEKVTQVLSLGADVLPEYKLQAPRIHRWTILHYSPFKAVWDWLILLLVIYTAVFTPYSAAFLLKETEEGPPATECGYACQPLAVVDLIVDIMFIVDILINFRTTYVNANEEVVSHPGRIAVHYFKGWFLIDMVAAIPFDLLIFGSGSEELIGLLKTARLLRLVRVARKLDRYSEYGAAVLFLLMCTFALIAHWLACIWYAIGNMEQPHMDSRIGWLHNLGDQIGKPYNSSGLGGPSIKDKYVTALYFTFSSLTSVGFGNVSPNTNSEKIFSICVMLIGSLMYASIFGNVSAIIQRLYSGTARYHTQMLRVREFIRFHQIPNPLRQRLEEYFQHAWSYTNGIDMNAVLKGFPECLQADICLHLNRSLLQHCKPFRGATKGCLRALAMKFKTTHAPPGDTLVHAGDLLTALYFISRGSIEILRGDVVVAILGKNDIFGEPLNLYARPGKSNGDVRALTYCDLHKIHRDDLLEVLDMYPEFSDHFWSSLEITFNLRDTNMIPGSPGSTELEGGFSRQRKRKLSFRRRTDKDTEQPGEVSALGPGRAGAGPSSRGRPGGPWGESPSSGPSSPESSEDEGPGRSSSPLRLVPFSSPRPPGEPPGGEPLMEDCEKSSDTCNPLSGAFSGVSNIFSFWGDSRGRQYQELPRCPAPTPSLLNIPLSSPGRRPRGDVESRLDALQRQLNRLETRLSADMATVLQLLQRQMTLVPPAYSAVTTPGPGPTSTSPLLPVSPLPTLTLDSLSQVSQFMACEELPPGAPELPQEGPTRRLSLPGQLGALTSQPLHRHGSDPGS
The data set is described as follows: hERG test (whole cell patch clamp, IKr). It counts as cell-based. Conditions: HEK293 cells expressing hERG channel, pH 7.4, at 1 μmol/L, read-out: % inhibition of IKr (hERG tail peak current). An excerpt:
For the purpose of assessing risk of an electrocardiogram QT interval prolongation, effects on delayed rectifier K^+ current (IKr), which plays an important role in the ventricular repolarization process, was studied using HEK293 cells expressing human ether-a-go-go related gene (hERG) channel. After a cell was retained at a membrane potential of −80 mV by whole cell patch clamp method using an automated patch clamp system (PatchXpress 7000A, Axon Instruments Inc.), IKr induced by depolarization pulse stimulation at +50 mV for 2 seconds and, further, repolarization pulse stimulation at −50 mV for 2 seconds was recorded. […] From the recording IKr, an absolute value of the tail peak current was measured based on the current value at the resting membrane potential using an analysis software (DataXpress ver.1, Molecular Devices Corporation). Further, the % inhibition relative to the tail peak current before application of the test substance was calculated, and compared with the vehicle-applied group (0.1% dimethyl sulfoxide solution) to assess influence of the test substance on IKr.
Background: The hERG channel carries a current that helps repolarise heart muscle cells.

A short description of data set [3]: Bioavailability (BA) test and total body clearance test. It counts as in vivo. Conditions: plasma, rat; for bioavailability: oral 1 mg/kg dosage. The method, then:
(1) Animal: mice or rats (2) Breeding conditions: mice and rats are allowed to freely take solid feed and sterilized tap water (3) Dose and grouping: orally or intravenously administered at a predetermined dose; grouping is as follows (Dose depends on the compound)
Oral administration: 1 to 30 mg/kg (n=2 to 3)
Intravenous administration: 0.5 to 10 mg/kg (n=2 to 3)
(4) Preparation of dosing solution: for oral administration, in a solution or a suspension state; for intravenous administration, in a solubilized state (5) Administration method: in oral administration, forcedly administer into ventriculus with oral probe; in intravenous administration, administer from caudal vein with a needle-equipped syringe (6) Evaluation items: blood is collected over time, and the plasma concentration of drug is measured by LC/MS/MS (7) Statistical analysis: regarding the transition of the plasma concentration, the area under the plasma concentration-time curve (AUC) and total body clearance (Clt) are calculated by non-linear least squares program WinNonlin (Registered trademark), and the bioavailability (BA) is calculated from the AUCs of the oral administration group and intravenous administration group
The following values show the rat BA of the compounds on oral 1 mg/kg dosage.

In data set [4] the target is CYP3A4 (Homo sapiens, UniProt P08684). The data set is described as follows: CYP3A4 fluorescent MBI test. The class given is in vitro ADME. Also on record: host or cells: Escherichia coli. Conditions: prereaction 0 or 30 minutes; substrate 7-BFC; CYP3A4 expressed in Escherichia coli. The protocol: The CYP3A4 fluorescent MBI test is a test of investigating enhancement of CYP3A4 inhibition of a compound by a metabolism reaction, and the test was performed using, as CYP3A4 enzyme expressed in Escherichia coli and employing, as an index, a reaction in which 7-benzyloxytrifluoromethylchmarin (BFC) is debenzylated by the CYP3A4 enzyme to produce a metabolite, 7-hydroxytrifluoromethylchmarin (HFC) emitting fluorescent light.
Chain of CYP3A4 (P08684 whole entry): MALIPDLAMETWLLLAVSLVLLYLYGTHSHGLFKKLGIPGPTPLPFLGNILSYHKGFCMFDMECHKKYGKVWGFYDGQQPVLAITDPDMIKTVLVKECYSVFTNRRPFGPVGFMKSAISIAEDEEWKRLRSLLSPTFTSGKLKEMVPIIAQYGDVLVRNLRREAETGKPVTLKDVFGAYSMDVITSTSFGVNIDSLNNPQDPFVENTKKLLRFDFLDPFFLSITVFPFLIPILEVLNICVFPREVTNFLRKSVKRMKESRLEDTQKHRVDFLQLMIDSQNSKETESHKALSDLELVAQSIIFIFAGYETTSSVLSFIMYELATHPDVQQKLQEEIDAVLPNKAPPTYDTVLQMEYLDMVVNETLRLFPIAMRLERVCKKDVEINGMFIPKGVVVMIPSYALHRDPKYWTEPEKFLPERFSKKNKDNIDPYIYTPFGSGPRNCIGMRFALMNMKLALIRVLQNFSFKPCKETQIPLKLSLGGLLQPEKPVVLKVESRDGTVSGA
The reaction conditions were as follows: substrate, 5.6 μmol/L 7-BFC; prereaction time, 0 or 30 minutes; reaction time, 15 minutes; reaction temperature, 25° C. […]
An enzyme in a K-Pi buffer (pH 7.4) and a test drug solution as a pre-reaction solution were added to a 96-well plate at the composition of the pre-reaction, a part of it was transferred to another 96-well plate so that it was 1/10 diluted by a substrate in a K-Pi buffer, NADPH as a co-factor was added to initiate a reaction as an index (without preincubation) and, after a predetermined time of a reaction, acetonitrile/0.5 mol/L Tris(trishydroxyaminomethane)=4/1 was added to stop the reaction. […] For the plate on which each index reaction had been performed, a fluorescent value of 7-HFC which is a metabolite was measured with a fluorescent plate reader. […]

Data set [5] is described as follows: Metabolism stability test (rat). It counts as in vitro ADME. Conditions: 30 minutes, 37° C.
Data set [6] can be described thus: Metabolism stability test (human). It counts as in vitro ADME. Conditions: 30 minutes, 37° C. The method, then: Using commercially available pooled human hepatic microsomes, prepared in accordance with Japanese journal of pharmacology, 33 (1), p. 41-56, February 1983, a test compound was reacted for a constant time, a remaining rate was calculated by comparing a reacted sample and an unreacted sample, thereby, a degree of metabolism in liver was assessed.
A reaction was performed (oxidative reaction) at 37° C. for 0 minute or 30 minutes in the presence of 1 mmol/L NADPH in 0.2 mL of a buffer (50 mmol/L tris-HCl pH 7.4, 150 mmol/L potassium chloride, 10 mmol/L magnesium chloride) containing 0.5 mg protein/mL of human liver microsomes. After the reaction, 50 μL of the reaction solution was added to 100 μL of a methanol/acetonitrile=1/1 (v/v), mixed and centrifuged at 3000 rpm for 15 minutes. The test compound in the supernatant was quantified by LC/MS/MS, and a remaining amount of the test compound after the reaction was calculated, letting a compound amount at 0 minute reaction time to be 100%. Hydrolysis reaction was performed in the absence of NADPH and glucuronidation reaction was in the presence of 5 mM UDP-glucuronic acid in place of NADPH, followed by similar operations.

[7] abbreviates: test compound concentration 2 μmol/L.
[8] abbreviates: test compound concentration 0.5 μmol/L.

This is an account of results in US20120277238A1, “PHARMACEUTICAL COMPOSITION CONTAINING FUSED HETERO-RING DERIVATIVE” (Shionogi & Co., Ltd, priority 2009, published 2012).

The structures appear in SMILES notation.

T1 sequence (Q9H3N8 whole entry): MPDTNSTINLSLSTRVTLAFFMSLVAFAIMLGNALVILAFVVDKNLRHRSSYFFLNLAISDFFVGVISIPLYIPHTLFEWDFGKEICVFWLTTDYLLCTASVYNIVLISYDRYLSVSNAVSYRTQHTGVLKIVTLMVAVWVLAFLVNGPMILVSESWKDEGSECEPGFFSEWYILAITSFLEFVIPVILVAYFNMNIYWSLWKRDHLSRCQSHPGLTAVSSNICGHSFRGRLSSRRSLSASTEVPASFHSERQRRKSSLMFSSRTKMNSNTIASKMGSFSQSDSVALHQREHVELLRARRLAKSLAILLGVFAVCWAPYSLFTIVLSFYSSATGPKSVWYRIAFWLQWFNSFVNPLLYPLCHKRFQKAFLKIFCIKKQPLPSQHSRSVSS

For `CN1CCN(C(=O)c2cc3c([nH]2)C(CO)CCC3)CC1` (centres unmarked) [Compound I-043], the affinity in data set [1] corresponds to a Ki of 270 nM. Also, the inhibition (as a rule, the relative decrease from the control value, in per cent) at 10 min, 1 μmol/L in data set [2] was determined as 0%.

In the case of `CN1CCN(C(=O)c2cc3c([nH]2)CCC(C#N)C3)CC1` (centres unmarked) [Compound I-035], in data set [1], the Ki – broadly, the equilibrium dissociation constant of an inhibitor or competing ligand from its target – amounted to 150 nM. Moreover, in data set [3], the bioavailability (commonly the share of a dose that reaches the circulation, judged against a reference dose that is usually intravenous) is 31%. For the same compound, in data set [2], the inhibition at 10 min, 1 μmol/L turned out to be 0%.

Consider `CN1CCN(C(=O)c2cc3c([nH]2)CCC3O)CC1` (centres unmarked) [Compound I-010], for which, in data set [4], the “CYP3A4 MBI: difference between IC50 values” is reported as “(−) (when the difference is 3 μM or less, this was defined as (−))”.

With `O=C(c1cc2c([nH]1)CCC(Cl)(Cl)C2O)N1CCNCC1` (centres unmarked) [Compound I-073], the Ki in data set [1] worked out at 980 nM. For the same compound, the remaining rate is recorded as 79% in data set [5] (setting [7]) and 99% in data set [6] (setting [7]). This compound also had a bioavailability in data set [3] of 59%. For the same compound, the clearance (commonly a measure of how efficiently the substance is removed, as volume per time) in data set [3] (intravenous, read-out: Clt (total body clearance)) came out at 24 mL/min/kg.

As for `CN1CCN(C(=O)c2cc3c([nH]2)C(O)CC3)CC1` (centres unmarked) [Compound I-012], the Ki in data set [1] was 680 nM. For the same compound, the remaining rate is recorded as 92% in data set [5] (setting [8]) and 94% in data set [6] (setting [8]).
